Experimental data published in patent US9914730B2, “Azaquinazoline inhibitors of Atypical protein Kinase C” (Ignyta, Inc., priority 2012, dated 2018).

Biological target: T1, full-length human PKCι (Homo sapiens, UniProt P41743)
T1 construct: Recombinant, full-length human PKCι expressed in Sf21 insect cells is also commercially available; purchased; host or cells: Sf21 insect cells
T1 sequence (P41743 1-596): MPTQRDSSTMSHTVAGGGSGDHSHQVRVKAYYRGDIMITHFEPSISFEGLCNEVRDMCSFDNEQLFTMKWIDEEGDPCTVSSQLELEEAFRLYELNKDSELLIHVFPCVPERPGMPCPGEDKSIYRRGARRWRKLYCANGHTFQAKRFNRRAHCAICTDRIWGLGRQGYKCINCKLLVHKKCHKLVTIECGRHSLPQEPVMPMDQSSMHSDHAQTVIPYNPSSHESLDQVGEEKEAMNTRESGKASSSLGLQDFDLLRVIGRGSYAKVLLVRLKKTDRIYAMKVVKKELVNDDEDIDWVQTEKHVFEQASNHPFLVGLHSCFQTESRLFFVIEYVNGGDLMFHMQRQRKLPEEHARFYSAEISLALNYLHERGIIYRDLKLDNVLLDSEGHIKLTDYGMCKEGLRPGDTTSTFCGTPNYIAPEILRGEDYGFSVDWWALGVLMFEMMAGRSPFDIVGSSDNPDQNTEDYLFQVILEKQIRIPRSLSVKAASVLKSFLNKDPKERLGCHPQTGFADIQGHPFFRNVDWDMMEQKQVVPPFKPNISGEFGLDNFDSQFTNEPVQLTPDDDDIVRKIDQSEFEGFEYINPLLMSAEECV
Assay: PKCι IC50 IMAP assay, full-length PKCι at 150 μM ATP
Type: biochemical
Details: read-out: IC50 in IMAP assay against full length PKCi at 150 μM ATP
Method in brief: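 IMAP fluorescence polarisation (ex 485/em 530 nm) read-out; % inhibition set from no-compound (0%) and no-enzyme (100%) controls, IC50 from dose-response curve fit. Sf21-expressed full-length enzyme ~15 pM, 100 nM FAM peptide, ATP 150 μM (5× KM^APP), 60 min at RT.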

Structure (SMILES) | IC50 [nM]
Fc1ccc(Nc2cc(-c3nc(N4CCNCC4)c4c(C5CC5)cncc4n3)ccn2)c(Cl)c1 [Example 570, (2-Chloro-4-fluoro-phenyl)-[4-(5-cyclopropyl-4-piperazin-1-yl-pyrido[3,4-d]pyrimidin-2-yl)-pyridin-2-yl]-amine] | < 100
c1csc(-c2cc3c(-c4nc(N5CCNCC5)c5c(C6CC6)cncc5n4)ccnc3[nH]2)c1 [Example 1222, 5-Cyclopropyl-4-piperazin-1-yl-2-(2-thiophen-2-yl-1H-pyrrolo[2,3-b]pyridin-4-yl)-pyrido[3,4-d]pyrimidine] | < 100
COc1ccccc1Nc1cc(-c2nc(N3CCNCC3)c3c(C4CC4)cncc3n2)ccn1 [Example 515, [4-(5-Cyclopropyl-4-piperazin-1-yl-pyrido[3,4-d]pyrimidin-2-yl)-pyridin-2-yl]-(2-methoxy-phenyl)-amine] | < 100
CN1CCCN(c2nc(-c3ccncc3)nc3cnccc23)CC1 [Example 19, 1-methyl-4-[2-(pyridin-4-yl)-pyrido[3,4-d]-pyrimidin-4-yl]-1,4-diazepane] | 10000 to 40000
Clc1ccc2[nH]c3nccc(-c4nc(N5CCNCC5)c5c(C6CCC6)cncc5n4)c3c2c1 [Example 2200, 6-Chloro-4-(5-cyclobutyl-4-piperazin-1-yl-pyrido[3,4-d]pyrimidin-2-yl)-9H-pyrido[2,3-b]indole] | < 100
Fc1cccc(F)c1Nc1cc(-c2nc(NC3CCNCC3)c3c(C4CC4)cncc3n2)ccn1 [Example 790, {5-Cyclopropyl-2-[2-(2,6-difluoro-phenylamino)-pyridin-4-yl]-pyrido[3,4-d]pyrimidin-4-yl}-piperidin-4-yl-amine] | < 100
Fc1cc(F)c(Nc2cc(-c3nc(N4CCNCC4)c4c(C5CC5)cncc4n3)ccn2)c(F)c1 [Example 650, [4-(5-Cyclopropyl-4-piperazin-1-yl-pyrido[3,4-d]pyrimidin-2-yl)-pyridin-2-yl]-(2,4,6-trifluoro-phenyl)-amine] | < 100
COc1ccc(Nc2cc(-c3nc(N4CCNCC4)c4c(C5CC5)cncc4n3)ccn2)cn1 [Example 547, [4-(5-Cyclopropyl-4-piperazin-1-yl-pyrido[3,4-d]pyrimidin-2-yl)-pyridin-2-yl]-(6-methoxy-pyridin-3-yl)-amine] | < 100
FC(F)(F)c1cc2c(-c3nc(N4CCNCC4)c4c(C5CC5)cncc4n3)ccnc2[nH]1 [Example 1212] | < 100
COc1cncc2nc(-c3ccncc3)nc(N3CC[C@H](O)C3)c12 [Example 50, (3S)-1-[5-methoxy-2-(pyridin-4-yl)-pyrido[3,4-d]-pyrimidin-4-yl]-pyrrolidin-3-ol] | 10000 to 40000
COc1cncc2nc(-c3ccnc(Nc4ccc(N5CCOCC5)cc4)c3)nc(N[C@@H]3CCNC3)c12 [Example 229, {5-Methoxy-2-[2-(4-morpholin-4-yl-phenylamino)-pyridin-4-yl]-pyrido[3,4-d]pyrimidin-4-yl}-(R)-pyrrolidin-3-yl-amine] | < 100
O=C(NCCN1CCCC1)C1CCN(c2nc(-c3ccnc(Nc4c(F)cccc4F)c3)nc3cncc(C4CC4)c23)CC1 [Example 668, 1-{5-Cyclopropyl-2-[2-(2,6-difluoro-phenylamino)-pyridin-4-yl]-pyrido[3,4-d]pyrimidin-4-yl}-piperidine-4-carboxylic acid (2-pyrrolidin-1-yl-ethyl)-amide] | < 100
N[C@H](CNc1nc(-c2ccncc2)nc2c(-c3ccn[nH]3)nccc12)Cc1ccccc1 [Example 89, N-[(2S)-2-amino-3-phenylpropyl]-8-(1H-pyrazol-5-yl)-2-(pyridin-4-yl)pyrido[3,4-d]-pyrimidin-4-amine] | < 100
Clc1ccccc1-c1cc2c(-c3nc(N4CCNCC4)c4c(C5CCC5)cncc4n3)ccnc2[nH]1 [Example 2204, 2-[2-(2-Chloro-phenyl)-1H-pyrrolo[2,3-b]pyridin-4-yl]-5-cyclobutyl-4-piperazin-1-yl-pyrido[3,4-d]pyrimidine] | < 100
Fc1cccc(F)c1Nc1cc(-c2nc(NC3CNC3)c3c(C4CC4)cncc3n2)ccn1 [Example 2026, Azetidin-3-yl-{5-cyclopropyl-2-[2-(2,6-difluoro-phenylamino)-pyridin-4-yl]-pyrido[3,4-d]pyrimidin-4-yl}-amine] | < 100
Fc1cc(F)nc(Nc2cc(-c3nc(N4CCNCC4)c4c(C5CCC5)cncc4n3)ccn2)c1 [Example 2011, [4-(5-Cyclobutyl-4-piperazin-1-yl-pyrido[3,4-d]pyrimidin-2-yl)-pyridin-2-yl]-(4,6-difluoro-pyridin-2-yl)-amine] | < 100
Fc1cccc(F)c1Nc1cc(-c2nc(N3CCNC(CC(F)(F)F)C3)c3c(C4CC4)cncc3n2)ccn1 (stereo not drawn) [Example 642, (4-{5-Cyclopropyl-4-[3-(2,2,2-trifluoro-ethyl)-piperazin-1-yl]-pyrido[3,4-d]pyrimidin-2-yl}-pyridin-2-yl)-(2,6-difluoro-phenyl)-amine] | 100 to 1000
COc1cncc2nc(-c3ccnc(NC(=O)C4CCOCC4)c3)nc(N3CCNCC3)c12 [Example 218, Tetrahydro-pyran-4-carboxylic acid[4-(5-methoxy-4-piperazin-1-yl-pyrido[3,4 d]pyrimidin-2-yl)-pyridin-2-yl]-amide] | < 100
Fc1cc(F)c(F)c(Nc2cc(-c3nc(N[C@@H]4CCNC4)c4c(C5CC5)cncc4n3)ccn2)n1 [Example 2054, {5-Cyclopropyl-2-[2-(3,4,6-trifluoro-pyridin-2-ylamino)-pyridin-4-yl]-pyrido[3,4-d]pyrimidin-4-yl}-(R)-pyrrolidin-3-yl-amine] | < 100
Fc1ccccc1Nc1cc(-c2nc(N3CCN[C@@H](C4CC4)C3)c3c(C4CC4)cncc3n2)ccn1 [Example 276, {4-[5-Cyclopropyl-4-((S)-3-cyclopropyl-piperazin-1-yl)-pyrido[3,4-d]pyrimidin-2-yl]-pyridin-2-yl}-(2 fluoro-phenyl)-amine] | < 100
Fc1ccc(F)c(Nc2cc(-c3nc(N4CCNCC4)c4c(C5CC5)cncc4n3)ccn2)n1 [Example 548, [4-(5-Cyclopropyl-4-piperazin-1-yl-pyrido[3,4-d]pyrimidin-2-yl)-pyridin-2-yl]-(3,6-difluoro-pyridin-2-yl)-amine] | < 100
Nc1cccc(-c2nccc3c(NC[C@@H](N)Cc4ccccc4)nc(-c4ccncc4)nc23)c1 [Example 109, N-[(2S)-2-amino-3-phenylpropyl]-8-(3-aminophenyl)-2-(pyridin-4-yl)pyrido[3,4-d]pyrimidin-4-amine] | 100 to 1000
C[C@@H](Nc1cc(-c2nc(N3CCNCC3)c3c(C4CC4)cncc3n2)ccn1)c1cccc2ccccc12 [Example 2165, [4-(5-Cyclopropyl-4-piperazin-1-yl-pyrido[3,4-d]pyrimidin-2-yl)-pyridin-2-yl]-((R)-1-naphthalen-1-yl-ethyl)-amine] | < 100
CN(C)C(=O)C1CCN(c2nc(-c3ccnc(Nc4c(F)cccc4F)c3)nc3cncc(C4CC4)c23)CC1 [Example 686, 1-{5-Cyclopropyl-2-[2-(2,6-difluoro-phenylamino)-pyridin-4-yl]-pyrido[3,4-d]pyrimidin-4-yl}-piperidine-4-carboxylic acid dimethylamide] | 100 to 1000
Cc1cccc(-c2nccc3c(NC[C@@H](N)Cc4ccccc4)nc(-c4ccncc4)nc23)c1 [Example 119, N-[(2S)-2-amino-3-phenylpropyl]-8-(3-methyl-phenyl)-2-(pyridin-4-yl)-pyrido[3,4-d]-pyrimidin-4-amine] | 1000 to 10000
c1cc(-c2nc(N3CCNCC3)c3c(C4CCC4)cncc3n2)c2cc([C@@H]3C[C@H]4CC[C@@H]3O4)[nH]c2n1 (racemic) [Example 2122, (±)-exo-5-Cyclobutyl-2-[2-(7-oxa-bicyclo[2.2.1]hept-2-yl)-1H-pyrrolo[2,3-b]pyridin-4-yl]-4-piperazin-1-yl-pyrido[3,4-d]pyrimidine] | < 100
COc1cncc2nc(-c3ccnc(Nc4ccccc4)c3)nc(N3CCC(F)(F)CC3)c12 [Example 460, {4-[4-(4,4-Difluoro-piperidin-1-yl)-5-methoxy-pyrido[3,4-d]pyrimidin-2-yl]-pyridin-2-yl}-phenyl-amine] | 10000 to 40000
[2H]c1c([2H])c([2H])c(Nc2cc(-c3nc(N4CCNCC4)c4c(C5CC5)cncc4n3)ccn2)c([2H])c1[2H] [Example 559, [4-(5-Cyclopropyl-4-piperazin-1-yl-pyrido[3,4-d]pyrimidin-2-yl)-pyridin-2-yl]-pentdeuterio-phenyl-amine] | < 100
C[C@H](N)CNc1nc(-c2ccncc2)nc2cnccc12 [Example 5, N-[(2S)-2-aminopropyl]-2-(pyridin-4-yl)pyrido[3,4-d]-pyrimidin-4-amine] | 10000 to 40000
CSc1nccc2c(NC[C@@H](N)Cc3ccccc3)nc(-c3ccncc3)nc12 [Example 130, N-[(2S)-2-amino-3-phenylpropyl]-8-(methylsulfanyl)-2-(pyridin-4-yl)pyrido[3,4-d]pyrimidin-4-amine] | 1000 to 10000
